Experiments:
leptin = assay: Leptin levels in the hypothalamus; type: in vivo, BALB/c mice; conditions: FIG. 15
Excerpt: 50, 2 month old female BALB/c mice, 10 mice per group, on ad libitum diet were separated (each mouse in a different cage) for 9 days (Separation Stress, a model for depression).

[1] = Tail Suspension Test, separated BALB/c mice (model for depression); type: in vivo; conditions: compounds 1 mg/kg i.p., imipramine 10 mg/kg i.p.; day 7; in relation to vehicle
Excerpt: (§1) Tail suspension test (TST): Animals are suspended upside down by adhesive tape placed 1 cm from the tail tip. The elevation of the animal is 50 cm from the nearest surface. […] Statistical analysis compares the magnitude of immobility (in seconds) between different treatment groups. In this test, antidepressants characteristically cause an increase of the time fraction spent by the animal as active at the expense of the inactivity period.
50, 2 month old female BALB/c mice were separated (each mouse in a different cage) for 9 days period (a model for depression). On days 7, 8, 9, 34-40 mice were administered with either vehicle or compounds X, 12 and 15 (1 mg/kg i.p.) or imipramine 10 mg/kg (anti-depressant) i.p. and tested in the Tail suspension test on day 7 of the experiment (10 mice per group).

[2] = Novelty Suppressed Feeding Test (NSFT), separated BALB/c mice; type: in vivo; conditions: compounds 1 mg/kg i.p., day 9
Method: (§2) Novelty suppressed feeding test (NSFT): After the last treatment injection, all food is removed from the cage for 24 hours (water available ad libitum). At the end of this time, the animal is introduced into a 50×50×20 (height) cm wooden arena the floor of which is marked with equal rectangles of 10×10 cm. A pellet of food is placed on an elevated surface in the center of the arena. The time elapsing from the introduction of the animal into the arena until it commences eating (latency to feed) is recorded. The animal is removed from the arena immediately after it begins to eat or after not doing so for 5 min. During the test, the number of lines crossed by the animal is counted as a measure of motor activity, and calibrated for 5 min if the animal started eating before that. After the test, the animal is immediately transferred to its home cage and left to consume a previously weighed amount of food for 10 minutes. On completion of this period the food is weighed again to calculate the home cage food consumption.
(§3) 50, 2 month old female BALB/c mice, 10 mice per group, on ad libitum diet were separated (each mouse in a different cage) for 9 days (Separation Stress, a model for depression). On the 7, 8, 9, 34-40, days mice were administered with either vehicle or compounds x, 12 and 15 (1 mg/kg i.p.) or imipramine 10 mg/kg (antidepressant) i.p. and tested in Novel Suppressed Feeding Test on day 9.
as §2, with “FIGS. 9A-9C show the results of the NSFT. […]” for “Novelty suppressed feeding test (NSFT):”, “hours.” for “hours (water available ad libitum).”, “into” for “into a 50×50×20 (height) cm wooden arena”, “open field test.” for “floor of which is marked with equal rectangles of 10×10 cm.”, “to find” for “elapsing from”, “food was” for “introduction of the animal into the arena until it commences eating (latency to feed) is”

[3] = Forced Swim Test (FST), separated BALB/c mice; type: in vivo; conditions: compounds 1 mg/kg i.p., imipramine 10 mg/kg i.p.; day 8; in relation to vehicle
Method: (§4) Forced swim test (FST): The animal is placed in a circular, transparent, plexiglass tank measuring 21 cm in diameter and 46 cm in height containing water 15 cm high, maintained at 23-25° C. […] Also measured is the latency period, the time elapsing, for each animal from immersion in the water tank until the first occurrence of immobility. Since climbing activity is minimal in mice, […].
as §3, with “34-40” for “34-40,”, “the forced swim test (FST)” for “Novel Suppressed Feeding Test”, “8.” for “9.”

[4] = Tail Suspension Test, compound X dose study; type: in vivo, BALB/c mice; conditions: 10 mg/kg i.p.; day 23; more than imipramine and other concentrations
Excerpt: as §1
(§5) 50, 2 month old BALB/c mice, 10 mice per group, on ad libitum diet were divided to 5 experimental groups with equal weight. On the 2, 3, 4, 5, 9, 11, 16, 18, 23, 25, 29, 31 days mice were administered with either vehicle or compound x 0.1, 1, 10 mg/kg i.p. or imipramine 10 mg/kg.

NPY protein = NPY protein expression by western blot; type: in vivo, BALB/c mice; conditions: FIG. 13
Method: as §3, with “34-40” for “34-40,”, “X,” for “x,”, “(antidepressant).” for “(antidepressant) i.p. and tested in Novel Suppressed Feeding Test on day 9.”

[5] = Forced Swim Test, compound X dose study; type: in vivo, BALB/c mice; conditions: day 11
Method: as §4
as §5, with “compound X” for “compound x”, “mg/kg. Forced Swim Test was evaluated on day 11.” for “mg/kg.”

Question: What does the source list for `CCCCCCCC/C=C\CCCCCCCC(=O)N[C@H](CO)C(C)C` [Compound 1, oleoyl-L-valinol amide]?
Answer: leptin levels in the hypothalamus (leptin): tendency to increase; activity in Tail Suspension Test [1]: significantly enhanced activity; food intake in NSFT ([2]; in relation to vehicle and more than imipramine 10 mg/kg): significantly enhanced food intake; motor activity in NSFT ([2]; resembled imipramine 10 mg/kg): enhanced motor activity; swimming activity in forced swim test [3]: significantly enhanced swimming activity; motor activity in Tail Suspension Test [4]: improved significantly motor activity; NPY protein expression in the hypothalamus (NPY protein): decrease significantly; swimming activity in forced swim test ([5]; 0.1 mg/kg i.p.): improved significantly swimming activity; swimming activity in forced swim test ([5]; 1 mg/kg i.p., better than imipramine 10 mg/kg): improved significantly swimming activity; swimming activity in forced swim test ([5]; 10 mg/kg i.p., better than imipramine 10 mg/kg): improved significantly swimming activity

— patent US20150202179A1, “FATTY ACID DERIVATIVES FOR USE IN A METHOD OF TREATING DEPRESSION AND ASSOCIATED CONDITIONS” (YISSUM RESEARCH DEVELOPMENT COMPANY OF THE HEBREW …, priority 2012, published 2015)
